Test: xn = mol fraction of the nth substance listed
Details: 101 kPa, Liquid

C[S+](C)[O-] [dimethyl sulfoxide] + O
Details | mass density, 298.15 K [kg/m3] | mass density, 303.15 K [kg/m3] | mass density, 308.15 K [kg/m3] | mass density, 313.15 K [kg/m3] | mass density, 318.15 K [kg/m3] | viscosity, 298.15 K [mPa·s] | viscosity, 303.15 K [mPa·s] | viscosity, 308.15 K [mPa·s] | viscosity, 313.15 K [mPa·s] | viscosity, 318.15 K [mPa·s]
x1 = 0.0238 | 1009.5 | 1007.8 | 1005.89 | 1003.79 | 1001.51 | 1.033 | 0.9386 | 0.8541 | 0.7751 | 0.6982
x1 = 0.0489 | 1021.56 | 1019.59 | 1017.38 | 1015.03 | 1012.48 | 1.258 | 1.148 | 1.041 | 0.9371 | 0.8322
x1 = 0.0796 | 1034.64 | 1032.3 | 1029.76 | 1027.04 | 1024.2 | 1.597 | 1.454 | 1.309 | 1.165 | 1.02
x1 = 0.1183 | 1048.91 | 1046.26 | 1043.35 | 1040.22 | 1036.98 | 2.067 | 1.872 | 1.671 | 1.471 | 1.269
x1 = 0.1587 | 1061.32 | 1058.32 | 1055.11 | 1051.58 | 1047.91 | 2.549 | 2.295 | 2.036 | 1.778 | 1.519
x1 = 0.2036 | 1072.5 | 1069.04 | 1065.5 | 1061.82 | 1057.83 | 3.017 | 2.704 | 2.389 | 2.075 | 1.761
x1 = 0.2379 | 1079.21 | 1075.61 | 1071.77 | 1067.99 | 1063.81 | 3.301 | 2.954 | 2.604 | 2.258 | 1.911
x1 = 0.2768 | 1085.26 | 1081.43 | 1077.51 | 1073.27 | 1069.16 | 3.537 | 3.162 | 2.786 | 2.413 | 2.04
x1 = 0.3074 | 1088.96 | 1085.02 | 1080.99 | 1076.81 | 1072.4 | 3.656 | 3.269 | 2.881 | 2.496 | 2.11
x1 = 0.3335 | 1091.44 | 1087.45 | 1083.41 | 1079.21 | 1074.68 | 3.714 | 3.322 | 2.93 | 2.54 | 2.149
x1 = 0.3638 | 1093.61 | 1089.68 | 1085.47 | 1081.11 | 1076.63 | 3.735 | 3.344 | 2.953 | 2.562 | 2.172
x1 = 0.3906 | 1095.11 | 1091.09 | 1086.84 | 1082.43 | 1077.78 | 3.717 | 3.331 | 2.946 | 2.56 | 2.175
x1 = 0.4412 | 1097.04 | 1092.88 | 1088.48 | 1084.05 | 1079.52 | 3.606 | 3.241 | 2.876 | 2.508 | 2.142
x1 = 0.5193 | 1098.34 | 1094.01 | 1089.48 | 1085.1 | 1080.42 | 3.312 | 2.992 | 2.671 | 2.348 | 2.025
x1 = 0.5677 | 1098.66 | 1094.24 | 1089.61 | 1085.12 | 1080.33 | 3.102 | 2.81 | 2.519 | 2.227 | 1.934
x1 = 0.6195 | 1098.86 | 1094.29 | 1089.61 | 1085.01 | 1080.01 | 2.883 | 2.62 | 2.355 | 2.097 | 1.835
x1 = 0.6813 | 1098.85 | 1094.13 | 1089.3 | 1084.66 | 1079.61 | 2.656 | 2.421 | 2.183 | 1.958 | 1.727
x1 = 0.7595 | 1098.49 | 1093.75 | 1088.81 | 1083.92 | 1078.92 | 2.432 | 2.225 | 2.009 | 1.818 | 1.616
x1 = 0.8095 | 1098.02 | 1093.29 | 1088.4 | 1083.63 | 1078.58 | 2.32 | 2.129 | 1.926 | 1.749 | 1.559
x1 = 0.8856 | 1097.3 | 1092.53 | 1087.58 | 1082.75 | 1077.68 | 2.175 | 2.006 | 1.818 | 1.659 | 1.486
x1 = 0.9407 | 1096.83 | 1091.95 | 1086.95 | 1082.04 | 1076.93 | 2.08 | 1.92 | 1.746 | 1.599 | 1.438
x1 = 0.9781 | 1096.41 | 1091.56 | 1086.54 | 1081.71 | 1076.53 | 2.024 | 1.863 | 1.697 | 1.558 | 1.409
x1 = 1 | 1096.29 | 1091.44 | 1086.41 | 1081.59 | 1076.46 | 1.996 | 1.836 | 1.669 | 1.535 | 1.393
